One block for each compound: values may come before it.
Tests used:
Homo sapiens [1] = species: Homo sapiens; test: Inhibition of Calcium Ionophore (A-23187)-stimulated LTB4 formation in Human whole blood assay.; type: functional
[2] = half life was determined in plasma of rat; type: ADME, organism-based
[3] = half life was determined in plasma of dog; type: ADME, organism-based, Canis lupus familiaris
Rattus norvegicus [4] = test: Percent inhibition was determined for in vivo ionophore induced rat pleurisy at a dose of 0.3 mg/kg
[5] = half life was determined in plasma of monkey; type: ADME; details: simiiformes
Homo sapiens [6] = species: Homo sapiens; test: Inhibition of Calcium Ionophore (A-23187)-stimulated LTB4 formation in Human whole blood assay at a concentration of 12.5 nM; type: functional
Rattus norvegicus [7] = test: Percent inhibition was determined for in vivo ionophore induced rat pleurisy at a dose of 10 mg/kg
Rattus norvegicus [8] = test: Effective dose was determined for in vivo ionophore induced rat pleurisy.; type: functional
Rattus norvegicus [9] = test: Effective dose was determined in in vivo which inhibits 50% of the mean value in rat anaphylaxis.; type: functional
Rattus norvegicus [10] = test: In vivo inhibition of ionophore induced rat pleurisy.; type: functional
Rattus norvegicus [11] = test: Percent inhibition was determined for in vivo ionophore induced rat pleurisy at a dose of 3 mg/kg; type: functional
[12] = target: T1, Polyunsaturated fatty acid 5-lipoxygenase (Homo sapiens) (UniProt P09917); test: Inhibition of Calcium Ionophore (A-23187)-stimulated LTB4 formation in Human Neutrophil assay at 100 nM.
T1 sequence (whole entry): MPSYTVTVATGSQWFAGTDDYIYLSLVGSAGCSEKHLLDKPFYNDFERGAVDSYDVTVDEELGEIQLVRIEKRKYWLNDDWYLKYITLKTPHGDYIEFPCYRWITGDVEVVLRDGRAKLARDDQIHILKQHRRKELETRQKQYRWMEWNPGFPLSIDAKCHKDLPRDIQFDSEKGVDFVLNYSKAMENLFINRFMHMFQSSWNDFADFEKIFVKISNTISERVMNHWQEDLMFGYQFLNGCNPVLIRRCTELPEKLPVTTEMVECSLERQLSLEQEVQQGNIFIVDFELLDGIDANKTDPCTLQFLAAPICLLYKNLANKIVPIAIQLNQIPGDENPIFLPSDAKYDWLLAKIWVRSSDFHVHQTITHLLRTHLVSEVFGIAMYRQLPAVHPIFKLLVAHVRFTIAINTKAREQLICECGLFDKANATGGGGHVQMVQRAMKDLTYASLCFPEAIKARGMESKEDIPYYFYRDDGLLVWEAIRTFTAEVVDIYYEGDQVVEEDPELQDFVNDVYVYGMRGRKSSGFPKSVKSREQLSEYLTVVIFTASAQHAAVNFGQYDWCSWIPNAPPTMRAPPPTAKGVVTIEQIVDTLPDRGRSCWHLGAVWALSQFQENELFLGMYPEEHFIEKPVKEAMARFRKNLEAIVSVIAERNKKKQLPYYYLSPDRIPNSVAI

- IC50 (Homo sapiens [1]): 0.84 µM
- half-life [2]: 11.8 h
- half-life [3]: 4.6 h
- half-life [5]: 4 h
Structure (SMILES): C/C(=N\O[C@H](c1ccc(OCc2ccc3ccccc3n2)cc1)C1CCCCC1)C(=O)O
- I (Rattus norvegicus [4]): 43%

Structure (SMILES): C/C(=N/OC(c1ccc(OCc2ccc3ccccc3n2)cc1)C1CCCCC1)C(=O)O (stereo unspecified)
- Inhibition (Homo sapiens [6]): 59%

Structure (SMILES): O=C(O)/C=N/OCC(c1ccc(OCc2ccc3ccccc3n2)cc1)C1CCCCC1 (stereo unspecified)
- I (Rattus norvegicus [7]): 73%

Structure (SMILES): C/C(=N\OC(c1ccc(OCc2ccc3ccccc3n2)cc1Cl)C1CCCCC1)C(=O)O (stereo unspecified)
- ED50 (Rattus norvegicus [8]): 0.8 mg/kg

Structure (SMILES): C/C(=N\OC(c1ccc(OCc2ccc3ccccc3n2)cc1)C1CCCCC1)C(=O)[O-].[Na+] (stereo unspecified)
- Inhibition (Homo sapiens [1]): 72%
- I (Rattus norvegicus [4]): 74%

- IC50 (Homo sapiens [1]; Homo sapiens, Blood): 0.72 µM
- half-life [2]: 10.3 h
- half-life [3]: 5.6 h
- half-life [5]: 1.6 h
Structure (SMILES): C/C(=N\O[C@H](c1ccc(OCc2ccc3ccccc3n2)cc1)C1CCCCC1)C(=O)[O-].[Na+]
- ED50 (Rattus norvegicus [9]): 0.13 mg/kg
- ED50 (Rattus norvegicus [10]): 0.14 mg/kg

Structure (SMILES): CC(C)(CC(O/N=C/C(=O)O)c1ccc(OCc2ccc3ccccc3n2)cc1)c1ccccc1 (stereo unspecified)
- ED50 (Rattus norvegicus [8]): 4 mg/kg

Structure (SMILES): CC(C)(C)SC/C(=N\OC(c1ccc(OCc2ccc3ccccc3n2)cc1)C1CCCCC1)C(=O)O (stereo unspecified)
- I (Rattus norvegicus [8]): 47%

- IC50 (Homo sapiens [1]; Homo sapiens, Blood): 2.1 µM
- half-life [2]: 1 h
- half-life [3]: 2 h
- half-life [5]: 5.4 h
Structure (SMILES): CC(=NOC(c1ccc(OCc2ccc3ccccc3n2)cc1)C1CCCCC1)C(=O)O (stereo unspecified)
- ED50 (Rattus norvegicus [9]): 1.2 mg/kg
- I (Rattus norvegicus [11]): 89%

- inhibition [12]: 40%
Structure (SMILES): C/C(CC(=O)O)=N\OC(c1ccc(OCc2ccc3ccccc3n2)cc1)C1CCCCC1 (stereo unspecified)
- I (Rattus norvegicus [11]): 68%

From ChEMBL document CHEMBL1133707, “Heteroarylmethoxyphenylalkoxyiminoalkylcarboxylic acids as leukotriene biosynthesis inhibitors” (J Med Chem, 2000)
